Data from patent US20250361233A1, “Compounds For Activating Serotonin Receptor” (PSYLO PTY LTD, priority 2023, published 2025).

Experiments:
Format in all cases: cell-based
5-HT2C receptor = biological target: T1, 5-HT2C receptor (Homo sapiens, UniProt P28335); test: FLIPR Ca2+ flux functional assay, agonist activity at 5-HT2C; conditions: stably transfected HEK293 cells
T1 construct: host or cells: HEK293
T1 sequence (P28335 33-458): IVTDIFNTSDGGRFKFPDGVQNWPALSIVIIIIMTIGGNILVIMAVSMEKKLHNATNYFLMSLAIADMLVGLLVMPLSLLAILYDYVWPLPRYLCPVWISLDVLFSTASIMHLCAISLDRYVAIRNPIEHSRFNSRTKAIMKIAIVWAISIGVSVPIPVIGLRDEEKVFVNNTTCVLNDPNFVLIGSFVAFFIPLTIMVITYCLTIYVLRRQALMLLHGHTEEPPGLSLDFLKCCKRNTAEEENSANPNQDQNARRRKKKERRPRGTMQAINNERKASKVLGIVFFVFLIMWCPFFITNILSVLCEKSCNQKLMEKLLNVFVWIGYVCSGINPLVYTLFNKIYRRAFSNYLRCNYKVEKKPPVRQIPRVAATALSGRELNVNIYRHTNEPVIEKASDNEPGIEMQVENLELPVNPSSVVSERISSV
Experimental: (§1) Functional assays 5-HT2A, 5-HT2B and 5-HT2C Receptors
(§2) Activity at 5-HT2A, 5-HT2B and 5-HT2C receptors was determined using a FLIPR Ca2+ flux assay at WuXi AppTec Co. Ltd. (Hong Kong) Discovery Biology Unit according to their standard protocols. Briefly, stably transfected cells expressing the receptor of interest (HEK293 for 5-HT2A and 5-HT2C; CHO-K1 for 5-HT2B) were grown and plated in a 384 well plate and incubated at 37° C. and 5% CO2 overnight. A 250 mM stock solution of probenecid in FLIPR calcium assay buffer (10 mL) was freshly prepared and combined with a fluorescent dye (Fluo-4 Direct) to give a final assay concentration of 2.5 mM. Reference compounds were 4-fold serially diluted and the screening compounds were 3-fold serially diluted in 100% DMSO for 10 points using Agilent Bravo, and 750 nL was added to a 384 well compound plate using Echo along with 30 μL assay buffer. The fluorescent dye was then added to the assay plate along with assay buffer to a final volume of 40 μL. The cell plate was incubated for 50 min at 37° C. and 5% CO2 and placed into the FLIPR Tetra along with the compound plate. 10 μL of references and compounds were then transferred from the compound plate into the cell plate and the fluorescent signal was read.

5-HT2A receptor = biological target: T2, 5-HT2A receptor (Homo sapiens, UniProt P28223); test: FLIPR Ca2+ flux functional assay, agonist activity at 5-HT2A; conditions: stably transfected HEK293 cells
T2 construct: host or cells: HEK293
T2 sequence (P28223 whole entry): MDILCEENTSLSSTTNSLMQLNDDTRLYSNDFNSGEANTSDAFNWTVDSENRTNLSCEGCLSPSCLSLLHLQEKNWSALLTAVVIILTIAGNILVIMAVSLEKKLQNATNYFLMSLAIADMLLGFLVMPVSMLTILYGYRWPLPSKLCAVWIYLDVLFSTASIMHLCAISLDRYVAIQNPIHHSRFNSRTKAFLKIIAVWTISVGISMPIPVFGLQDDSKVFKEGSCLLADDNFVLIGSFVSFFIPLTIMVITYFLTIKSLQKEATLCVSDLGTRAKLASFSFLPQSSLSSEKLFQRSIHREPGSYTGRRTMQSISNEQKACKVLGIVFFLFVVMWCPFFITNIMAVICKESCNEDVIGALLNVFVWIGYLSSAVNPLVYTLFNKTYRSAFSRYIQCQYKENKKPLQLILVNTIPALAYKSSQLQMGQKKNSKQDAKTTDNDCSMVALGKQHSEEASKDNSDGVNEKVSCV
Experimental: as §1, §2

5-HT2B receptor = biological target: T3, 5-HT2B receptor (Homo sapiens, UniProt P41595); test: 5-HT2B activation in a similar assay at a single 10 μM concentration
T3 construct: host or cells: CHO-K1
T3 sequence (P41595 whole entry): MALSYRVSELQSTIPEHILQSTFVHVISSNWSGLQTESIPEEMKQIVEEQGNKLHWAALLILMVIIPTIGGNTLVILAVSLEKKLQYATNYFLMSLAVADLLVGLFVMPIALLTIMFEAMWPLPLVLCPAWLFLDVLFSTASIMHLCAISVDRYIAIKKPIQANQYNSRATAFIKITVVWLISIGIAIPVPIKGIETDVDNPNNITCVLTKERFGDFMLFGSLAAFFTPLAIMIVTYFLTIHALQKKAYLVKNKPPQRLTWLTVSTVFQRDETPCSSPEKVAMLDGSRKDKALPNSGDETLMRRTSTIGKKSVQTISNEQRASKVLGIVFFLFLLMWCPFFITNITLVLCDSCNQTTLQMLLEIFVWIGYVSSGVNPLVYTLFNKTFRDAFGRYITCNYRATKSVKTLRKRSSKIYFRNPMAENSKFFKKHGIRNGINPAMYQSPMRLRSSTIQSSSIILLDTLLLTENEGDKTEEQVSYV
Experimental: Activation data are provided in a similar assay tested at a single 10 μM concentration.

SMILES | EC50 (5-HT2C receptor) [µM] | Emax (5-HT2C receptor) [%] | EC50 (5-HT2A receptor) [nM] | Emax (5-HT2A receptor) [%] | 5-HT2B % Activation @ 10 μM (5-HT2B receptor) [%]
C[C@H]1CCCN1CCc1c[nH]c2ncc(F)cc12 [Compound S51, (S)-5-fluoro-3-(2-(2-methylpyrrolidin-1-yl)ethyl)-1H-pyrrolo[2,3-b]pyridine] | > 10 | 2 | 394 | 86 | 0
CCN(C)CCc1c[nH]c2ncc(Cl)cc12 [Compound S52, 2-(5-chloro-1H-pyrrolo[2,3-b]pyridin-3-yl)-N-ethyl-N-methylethan-1-amine] | 1.95 | 49 | 149 | 61 | 3
CC(C)N(C)CCc1c[nH]c2ncc(Cl)cc12 [Compound S53, N-(2-(5-chloro-1H-pyrrolo[2,3-b]pyridin-3-yl)ethyl)-N-methylpropan-2-amine] | 2.58 | 71 | 115 | 84 | 26
CCN(C)CCc1c[nH]c2ncc(Br)cc12 [Compound S54, 2-(5-bromo-1H-pyrrolo[2,3-b]pyridin-3-yl)-N-ethyl-N-methylethan-1-amine] | > 10 | 19 | 223 | 69 | 1
CC(C)N(C)CCc1c[nH]c2ncc(Br)cc12 [Compound S55, N-(2-(5-bromo-1H-pyrrolo[2,3-b]pyridin-3-yl)ethyl)-N-methylpropan-2-amine] | 3.59 | 34 | 158 | 73 | 4
CN(CCc1c[nH]c2ncc(Br)cc12)C1CC1 [Compound S56, N-(2-(5-bromo-1H-pyrrolo[2,3-b]pyridin-3-yl)ethyl)-N-methylcyclopropanamine] | 1.85 | 45 | 226 | 54 | 2
Brc1cnc2[nH]cc(CCN3CCCC3)c2c1 [Compound S57, 5-bromo-3-(2-(pyrrolidin-1-yl)ethyl)-1H-pyrrolo[2,3-b]pyridine] | 3.48 | 62 | 897 | 86 | 12
Brc1cnc2[nH]cc(CCN3CCC3)c2c1 [Compound S58, 3-(2-(azetidin-1-yl)ethyl)-5-bromo-1H-pyrrolo[2,3-b]pyridine] | 0.231 | 67 | 124 | 79 | 3
CC1CCN1CCc1c[nH]c2ncc(Br)cc12 (centres unmarked) [Compound S59, 5-bromo-3-(2-(2-methylazetidin-1-yl)ethyl)-1H-pyrrolo[2,3-b]pyridine] | > 10 | 19 | 410 | 69 | 0
Fc1ccccc1CNCCc1c[nH]c2ncc(Br)cc12 [Compound S60, 2-(5-bromo-1H-pyrrolo[2,3-b]pyridin-3-yl)-N-(2-fluorobenzyl)ethan-1-amine] | 1.79 | 63 | 285 | 66 | 0
Fc1cccc(CNCCc2c[nH]c3ncc(Br)cc23)c1 [Compound S61, 2-(5-bromo-1H-pyrrolo[2,3-b]pyridin-3-yl)-N-(3-fluorobenzyl)ethan-1-amine] | 1.92 | 73 | 74.7 | 65 | 0
COc1ccccc1CNCCc1c[nH]c2ncc(Br)cc12 [Compound S62, 2-(5-bromo-1H-pyrrolo[2,3-b]pyridin-3-yl)-N-(2-methoxybenzyl)ethan-1-amine] | 0.48 | 85 | 7.86 | 78 | 1
COc1cccc(CNCCc2c[nH]c3ncc(Br)cc23)c1 [Compound S63, 2-(5-bromo-1H-pyrrolo[2,3-b]pyridin-3-yl)-N-(3-methoxybenzyl)ethan-1-amine] | 2.97 | 48 | 104 | 63 | 0
CCN(C)CCc1c[nH]c2ncc(OC(F)(F)F)cc12 [Compound S64, N-ethyl-N-methyl-2-(5-(trifluoromethoxy)-1H-pyrrolo[2,3-b]pyridin-3-yl)ethan-1-amine] | > 10 | 0 | 1670 | 47 | 1
CC(C)N(C)CCc1c[nH]c2ncc(OC(F)(F)F)cc12 [Compound S65, N-methyl-N-(2-(5-(trifluoromethoxy)-1H-pyrrolo[2,3-b]pyridin-3-yl)ethyl)propan-2-amine] | > 10 | 0 | 665 | 73 | 1
CCN(C)CCc1c[nH]c2ncc(C#N)cc12 [Compound S66, 3-(2-(ethyl(methyl)amino)ethyl)-1H-pyrrolo[2,3-b]pyridine-5-carbonitrile] | > 10 | 1 | 1170 | 65 | 0
CC(C)N(C)CCc1c[nH]c2ncc(C#N)cc12 [Compound S67, 3-(2-(isopropyl(methyl)amino)ethyl)-1H-pyrrolo[2,3-b]pyridine-5-carbonitrile] | > 10 | 2 | 609 | 80 | 4
CN(CCc1c[nH]c2ncc(C#N)cc12)C1CC1 [Compound S68, 3-(2-(cyclopropyl(methyl)amino)ethyl)-1H-pyrrolo[2,3-b]pyridine-5-carbonitrile] | 4.57 | 44 | 566 | 70 | 11
N#Cc1cnc2[nH]cc(CCN3CCCC3)c2c1 [Compound S69, 3-(2-(pyrrolidin-1-yl)ethyl)-1H-pyrrolo[2,3-b]pyridine-5-carbonitrile] | > 10 | 0 | 1470 | 86 | 0
N#Cc1cnc2[nH]cc(CCN3CCC3)c2c1 [Compound S70, 3-(2-(azetidin-1-yl)ethyl)-1H-pyrrolo[2,3-b]pyridine-5-carbonitrile] | > 10 | 16 | 681 | 78 | 0
CC1CCN1CCc1c[nH]c2ncc(C#N)cc12 (centres unmarked) [Compound S71, 3-(2-(2-methylazetidin-1-yl)ethyl)-1H-pyrrolo[2,3-b]pyridine-5-carbonitrile] | > 10 | 9 | 1140 | 81 | 0
N#Cc1cnc2[nH]cc(CCNCc3ccccc3F)c2c1 [Compound S72, 3-(2-((2-fluorobenzyl)amino)ethyl)-1H-pyrrolo[2,3-b]pyridine-5-carbonitrile] | 5.07 | 47 | 179 | 70 | 0
N#Cc1cnc2[nH]cc(CCNCc3cccc(F)c3)c2c1 [Compound S73, 3-(2-((3-fluorobenzyl)amino)ethyl)-1H-pyrrolo[2,3-b]pyridine-5-carbonitrile] | 7.43 | 43 | 134 | 66 | 2
COc1ccccc1CNCCc1c[nH]c2ncc(C#N)cc12 [Compound S74, 3-(2-((2-methoxybenzyl)amino)ethyl)-1H-pyrrolo[2,3-b]pyridine-5-carbonitrile] | 1.88 | 88 | 7.7 | 93 | 15
COc1cccc(CNCCc2c[nH]c3ncc(C#N)cc23)c1 [Compound S75, 3-(2-((3-methoxybenzyl)amino)ethyl)-1H-pyrrolo[2,3-b]pyridine-5-carbonitrile] | 3.62 | 46 | 44.4 | 79 | 1
